Source: patent publication US9962367B2, “Oral formulations of pyrrolidine derivatives” (ObsEva S.A., priority 2013, dated 2018)

Assay: Qualitative solubility/crystallisation tests on 15 mg scale
Type: physicochemical

Dissolves in (solvent DIPE, hot): 40 vol hot
Dissolves in (solvent IPA, hot): 4 vol hot
Dissolves in (solvent MIBK, hot): 4 vol hot
Dissolves in (solvent THF, cold): 4 vol cold
Dissolves in (solvent tBuOH, hot): 6 vol hot
Dissolves in (solvent toluene, cold): 2 vol cold
SMILES: CO/N=C1/C[C@@H](CO)N(C(=O)c2ccc(-c3ccccc3C)cc2)C1 [(3Z,5S), (3Z,5S)-5-(hydroxymethyl)-1-[(2′-methyl-1,1′-biphenyl-4-yl)carbonyl]pyrrolidin-3-one-O-methyloxime]
